Measurements: the supplement of paper PMC10733146

Tests used:
Assay in all cases: viability relative to DMSO control (fraction); higher = less drug effect (more viable cells)
Settings in all cases: 48 h
[1] = test system: primary ALL patient cells (S048)
Summary of the method: (§1)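 Cells were incubated for 48 h at 37 °C and 5% CO2 in RPMI-1640 with penicillin/streptomycin, L-glutamine and human serum, at 4 × 10^4 cells per well in 384-well plates with compounds pre-plated at five concentrations, one well each. These were primary mononuclear tumour cells, fresh or cryopreserved, Ficoll-isolated from blood or bone marrow or obtained from processed lymph node. Viability values are CellTiter-Glo luminescence relative to the median of 16 inner DMSO wells.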

[2] = test system: primary ALL patient cells (S088)
Summary of the method: as §1

[3] = test system: primary AML patient cells (S006)
Summary of the method: as §1

[4] = test system: primary AML patient cells (S007)
Summary of the method: as §1

[5] = test system: primary AML patient cells (S055)
Summary of the method: as §1

[6] = test system: primary AML patient cells (S056)
Summary of the method: as §1

[7] = test system: primary AML patient cells (S060)
Summary of the method: as §1

[8] = test system: primary AML patient cells (S071)
Summary of the method: as §1

[9] = test system: primary AML patient cells (S072)
Summary of the method: as §1

[10] = test system: primary AML patient cells (S079)
Summary of the method: as §1

[11] = test system: primary AML patient cells (S089)
Summary of the method: as §1

[12] = test system: primary CLL patient cells (S031)
Summary of the method: as §1

[13] = test system: primary CLL patient cells (S043)
Summary of the method: as §1

[14] = test system: primary DLBCL patient cells (S049)
Summary of the method: as §1

[15] = test system: primary DLBCL patient cells (S076)
Summary of the method: as §1

[16] = test system: primary DLBCL patient cells (S082)
Summary of the method: as §1

[17] = test system: primary MCL patient cells (S063)
Summary of the method: as §1

[18] = test system: primary T-NHL patient cells (S058)
Summary of the method: as §1

Nc1ccc2ncnc(NCCc3ccc(Oc4ccccc4)cc3)c2c1 [EVP4593]
viability ([1]; 0.008 µM): 0.776
viability ([1]; 0.04 µM): 0.919
viability ([1]; 0.2 µM): 0.88
viability ([1]; 1 µM): 0.869
viability ([1]; 5 µM): 0.676
viability ([2]; 0.008 µM): 0.151
viability ([2]; 0.04 µM): 0.168
viability ([2]; 0.2 µM): 0.147
viability ([2]; 1 µM): 0.108
viability ([2]; 5 µM): 0.088
viability ([3]; 0.008 µM): 0.855
viability ([3]; 0.04 µM): 0.755
viability ([3]; 0.2 µM): 0.557
viability ([3]; 1 µM): 0.362
viability ([3]; 5 µM): 0.248
viability ([4]; 0.008 µM): 0.722
viability ([4]; 0.04 µM): 0.514
viability ([4]; 0.2 µM): 0.379
viability ([4]; 1 µM): 0.257
viability ([4]; 5 µM): 0.217
viability ([5]; 0.008 µM): 0.913
viability ([5]; 0.04 µM): 0.853
viability ([5]; 0.2 µM): 0.791
viability ([5]; 1 µM): 0.828
viability ([5]; 5 µM): 0.828
viability ([6]; 0.008 µM): 0.691
viability ([6]; 0.04 µM): 0.627
viability ([6]; 0.2 µM): 0.412
viability ([6]; 1 µM): 0.313
viability ([6]; 5 µM): 0.307
viability ([7]; 0.008 µM): 1.01
viability ([7]; 0.04 µM): 1
viability ([7]; 0.2 µM): 0.97
viability ([7]; 1 µM): 0.961
viability ([7]; 5 µM): 0.966
viability ([8]; 0.008 µM): 0.768
viability ([8]; 0.04 µM): 0.684
viability ([8]; 0.2 µM): 0.351
viability ([8]; 1 µM): 0.158
viability ([8]; 5 µM): 0.121
viability ([9]; 0.008 µM): 0.844
viability ([9]; 0.04 µM): 0.823
viability ([9]; 0.2 µM): 0.772
viability ([9]; 1 µM): 0.637
viability ([9]; 5 µM): 0.652
viability ([10]; 0.008 µM): 0.818
viability ([10]; 0.04 µM): 0.84
viability ([10]; 0.2 µM): 0.806
viability ([10]; 1 µM): 0.675
viability ([10]; 5 µM): 0.646
viability ([11]; 0.008 µM): 0.701
viability ([11]; 0.04 µM): 0.737
viability ([11]; 0.2 µM): 0.629
viability ([11]; 1 µM): 0.44
viability ([11]; 5 µM): 0.215
viability ([12]; 0.008 µM): 0.884
viability ([12]; 0.04 µM): 0.854
viability ([12]; 0.2 µM): 0.803
viability ([12]; 1 µM): 0.686
viability ([12]; 5 µM): 0.601
viability ([13]; 0.008 µM): 0.794
viability ([13]; 0.04 µM): 0.794
viability ([13]; 0.2 µM): 0.774
viability ([13]; 1 µM): 0.726
viability ([13]; 5 µM): 0.695
viability ([14]; 0.008 µM): 0.89
viability ([14]; 0.04 µM): 0.763
viability ([14]; 0.2 µM): 0.37
viability ([14]; 1 µM): 0.257
viability ([14]; 5 µM): 0.197
viability ([15]; 0.008 µM): 0.999
viability ([15]; 0.04 µM): 0.989
viability ([15]; 0.2 µM): 0.741
viability ([15]; 1 µM): 0.657
viability ([15]; 5 µM): 0.551
viability ([16]; 0.008 µM): 0.83
viability ([16]; 0.04 µM): 0.736
viability ([16]; 0.2 µM): 0.588
viability ([16]; 1 µM): 0.462
viability ([16]; 5 µM): 0.452
viability ([17]; 0.008 µM): 0.934
viability ([17]; 0.04 µM): 0.945
viability ([17]; 0.2 µM): 0.924
viability ([17]; 1 µM): 0.874
viability ([17]; 5 µM): 0.866
viability ([18]; 0.008 µM): 1.09
viability ([18]; 0.04 µM): 0.934
viability ([18]; 0.2 µM): 0.784
viability ([18]; 1 µM): 0.809
viability ([18]; 5 µM): 0.715
